Assay results taken from ChEMBL document CHEMBL1144603, “Synthesis and biological evaluation of new taxoids derived from 2-deacetoxytaxinine J” (Bioorg Med Chem Lett, 2007).
Activity calls are given as the source filed them. No cut-off for these calls is given here.

Key:
[1] = test system: MCF7; experiment: MDR-reversal in paclitaxel-resistant […] cell growth assay as reduction of IC50 at 0.1uM; assay type: functional, cell-based, Homo sapiens
[2] = test system: MCF7; experiment: MDR-reversal in paclitaxel-resistant […] cell growth assay as reduction of IC50 at 1uM; assay type: functional, cell-based, Homo sapiens
[3] = test system: MCF7; experiment: MDR-reversal in paclitaxel-resistant […] cell growth assay; assay type: functional, cell-based; settings: Homo sapiens

Row | SMILES | IC50 reduction [1] [%] | percent reduction of paclitaxel IC50 [2] [%] | Activity [3]
1 | C=C1[C@H]2C[C@@H]3C[C@H](OC(=O)[C@@H](O)Cc4ccccc4)C(C)=C([C@@H](OC(C)=O)[C@H](OC(C)=O)[C@]2(C)[C@@H](OC(C)=O)C[C@@H]1O)[C@@H]3C | 24 | 89 | 
2 | C=C1[C@@H](OC(=O)c2ccccc2)C[C@H](OC(C)=O)[C@]2(C)[C@@H]1C[C@@H]1C[C@H](OC(C)=O)C(C)=C(C1C)[C@@H](OC(C)=O)[C@@H]2OC(C)=O (single isomer, unassigned) |  |  | inactive
3 | C=C1[C@H]2C[C@@H]3C[C@H](OC(=O)[C@H](O)[C@H](CC(C)C)NC(=O)OC(C)(C)C)C(C)=C([C@@H](OC(C)=O)[C@H](OC(C)=O)[C@]2(C)[C@@H](OC(C)=O)C[C@@H]1O)[C@@H]3C |  | 93 | 
4 | C=C1[C@H]2C[C@@H]3C[C@H](OC(=O)/C=C/c4ccccc4)C(C)=C([C@@H](OC(C)=O)[C@H](OC(C)=O)[C@]2(C)[C@@H](OC(C)=O)C[C@@H]1O)[C@@H]3C | 35 | 92 | 
5 | C=C1[C@@H](OC(=O)[C@@H]2OC(c3ccc(OC)cc3OC)N(C(=O)OC(C)(C)C)[C@H]2CC(C)C)C[C@H](OC(C)=O)[C@]2(C)[C@@H]1C[C@@H]1C[C@H](OC(C)=O)C(C)=C([C@@H](OC(C)=O)[C@@H]2OC(C)=O)[C@@H]1C (some centres undefined) |  |  | inactive
6 | C=C1[C@@H](OC(=O)/C=C/c2ccccc2)C[C@H](OC(C)=O)[C@]2(C)[C@@H]1C[C@@H]1C[C@H](OC(=O)C(O)[C@@H](CC(C)C)NC(=O)OC(C)(C)C)C(C)=C([C@@H](OC(C)=O)[C@@H]2OC(C)=O)[C@@H]1C (some centres undefined) |  |  | inactive
7 | C=C1[C@@H](O[Si](CC)(CC)CC)C[C@H](OC(C)=O)[C@]2(C)[C@@H]1C[C@@H]1C[C@H](OC(C)=O)C(C)=C(C1C)[C@@H](OC(C)=O)[C@@H]2OC(C)=O (single isomer, unassigned) |  | 92 | 
8 | CC(=O)O[C@H]1C[C@H](OC(=O)/C=C/c2ccccc2)[C@@]2(CO2)[C@H]2C[C@@H]3C[C@H](OC(C)=O)[C@]4(C)O[C@@]4([C@@H]3C)[C@@H](OC(C)=O)[C@H](OC(C)=O)[C@]12C | 2 | 70 | 
9 | C=C1[C@@H](OC(=O)/C=C/c2ccccc2)C[C@H](OC(C)=O)[C@]2(C)[C@@H]1C[C@@H]1C[C@H](OC(=O)/C=C/c3ccccc3)C(C)=C([C@@H](OC(C)=O)[C@@H]2OC(C)=O)[C@@H]1C |  |  | inactive
10 | C=C1[C@H]2C[C@@H]3C[C@H](OC(=O)c4ccccc4)C(C)=C([C@@H](OC(C)=O)[C@H](OC(C)=O)[C@]2(C)[C@@H](OC(C)=O)C[C@@H]1O)[C@@H]3C | 67 | 95 | 
11 | CC(=O)O[C@H]1C[C@H]2C[C@@H]3[C@]4(CO4)[C@@H](OC(=O)/C=C/c4ccccc4)C[C@H](OC(C)=O)[C@@]3(C)[C@@H](OC(C)=O)[C@H](OC(C)=O)C(=C1C)[C@@H]2C |  | 85 | 
12 | C=C1[C@@H](OC(=O)/C=C/c2ccccc2)C[C@H](OC(C)=O)[C@]2(C)[C@@H]1C[C@@H]1C[C@H](OC(=O)[C@@H]3OC(c4ccc(OC)cc4OC)N(C(=O)OC(C)(C)C)[C@H]3CC(C)C)C(C)=C([C@@H](OC(C)=O)[C@@H]2OC(C)=O)[C@@H]1C (some centres undefined) |  |  | inactive
13 | C=C1[C@@H](OC(=O)/C=C/c2ccccc2)C[C@H](OC(C)=O)[C@]2(C)[C@@H]1C[C@@H]1C[C@H](OC(C)=O)[C@]3(C)O[C@@]3([C@@H]1C)[C@@H](OC(C)=O)[C@@H]2OC(C)=O | 22 | 92 | 
14 | C=C1[C@H]2C[C@@H]3C[C@H](O)C(C)=C([C@@H](OC(C)=O)[C@H](OC(C)=O)[C@]2(C)[C@@H](OC(C)=O)C[C@@H]1O)[C@@H]3C |  | 47 | 
